{
  "source": "paper PMC3826612",
  "about": "(Talanta, 2013)",
  "molecular_target": "acetylcholinesterase from Electrophorus electricus (eelAChE) immobilized on magnetic beads (Electrophorus electricus, UniProt O42275)",
  "sequence (O42275 24-633)": "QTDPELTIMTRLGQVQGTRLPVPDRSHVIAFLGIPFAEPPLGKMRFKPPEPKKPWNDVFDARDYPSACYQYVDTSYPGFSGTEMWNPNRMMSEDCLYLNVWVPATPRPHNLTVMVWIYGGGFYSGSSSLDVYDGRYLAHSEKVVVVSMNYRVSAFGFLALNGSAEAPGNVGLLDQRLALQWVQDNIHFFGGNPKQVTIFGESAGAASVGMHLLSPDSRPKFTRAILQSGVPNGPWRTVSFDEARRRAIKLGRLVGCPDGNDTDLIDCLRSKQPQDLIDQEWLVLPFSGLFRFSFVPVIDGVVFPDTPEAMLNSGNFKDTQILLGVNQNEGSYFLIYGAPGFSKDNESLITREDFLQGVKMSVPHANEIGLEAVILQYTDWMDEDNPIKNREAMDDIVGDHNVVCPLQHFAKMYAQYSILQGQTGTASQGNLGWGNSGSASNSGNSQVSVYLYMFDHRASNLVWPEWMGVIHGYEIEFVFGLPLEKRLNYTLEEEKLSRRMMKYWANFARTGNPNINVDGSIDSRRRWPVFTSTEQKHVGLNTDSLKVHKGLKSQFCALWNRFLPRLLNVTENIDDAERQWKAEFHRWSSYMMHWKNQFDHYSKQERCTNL",
  "assay": "Ligand fishing assay using eelAChE-MB",
  "format": "binding",
  "conditions": "100 nM reference compounds, individually and as a mixture",
  "data": [
    {"smiles": "CNC1(c2ccccc2Cl)CCCCC1=O", "note": "(centres unmarked) [ketamine]", "values": [
      {"measurement": "Presence in supernatants S-1 (unbound) and S-2 (eluted)", "value": "only present in S-1"}
    ]},
    {"smiles": "CC(CCc1ccccc1)NCC(O)c1ccc(O)c(C(N)=O)c1", "note": "(centres unmarked) [labetalol]", "values": [
      {"measurement": "Presence in supernatants S-1 (unbound) and S-2 (eluted)", "value": "only present in S-1"}
    ]}
  ]
}
